Usually Kd stands for the constant that tells how readily two partners part at equilibrium. The low end stands for a tighter complex, the high end for a looser complex.

A short description of this assay: Kd of D4 by 3H-biotin binding and protein precipitation. The settings on record: 24 μM D4, increasing 3H-biotin (0-500 μM), >20 hr room temperature; ± s.e.m. The protocol: After incubation at room temperature for 20 hr, the protein was precipitated by adding 50 μL to 200 μL 0.2 M ZnSO4 followed by 200 μL 0.2 M NaOH. The protein precipitate was pelleted by centrifugation at 16,500 g for 5 min. The biotin bound by D4 was calculated from the total ^3H-biotin added minus the ^3H-biotin in the supernatant. The Kd was obtained using a nonlinear regression analysis (one-site binding hyperbola) with SigmaPlot (Systat Software; Point Richmond, Calif.).

Turning to “D4: Streptavidin tetramer with 4 dead subunits (D: N23A, S27D, S45A, SEQ ID NO:3) [Tetramer D4]”, binding was put at a Kd of 918 ± 0.0117 µM.
